{
  "source": "paper PMC11874195",
  "about": "“Structural requirements of KAI2 ligands for activation of signal transduction” (Proceedings of the National Academy of Sciences of the …, 2025)",
  "key": {"KAI2 [1]": {"target": "T1, KAI2 (Arabidopsis thaliana, UniProt Q9SZU7)", "T1 sequence (Q9SZU7 1-270)": "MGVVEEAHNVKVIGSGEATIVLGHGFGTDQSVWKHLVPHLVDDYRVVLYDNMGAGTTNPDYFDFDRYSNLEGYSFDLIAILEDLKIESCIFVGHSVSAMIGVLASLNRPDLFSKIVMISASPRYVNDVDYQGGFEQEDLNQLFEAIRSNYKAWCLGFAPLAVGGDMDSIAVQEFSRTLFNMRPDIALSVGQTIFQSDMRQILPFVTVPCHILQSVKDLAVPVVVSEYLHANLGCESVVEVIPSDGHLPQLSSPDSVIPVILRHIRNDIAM", "experiment": "biochemical", "set-up": "Competitive inhibition of dYLG (0.5 uM) hydrolysis by purified recombinant KAI2, fluorescence read-out", "details": "0.5 uM dYLG substrate, 10 min", "protocol": "The purified KAI2 (1 µg) was incubated with dYLG (0.5 µM) in the absence or presence of dMGer analogs for 10 min. Fluorescence intensity was measured using the Varioskan LUX plate reader (Thermo Fisher Scientific), with excitation and detection wavelengths of 480 and 520 nm, respectively. The IC50 values were calculated using the Enzyme Kinetics module of the SigmaPlot 14 program. Additional detailed methods are described in SI Appendix, Materials and Methods. To produce KAI2 protein, KAI2 cDNA was cloned into the pCold II vector, and KAI2 protein was expressed and purified as previously described(5). Briefly, the plasmid was transformed into BL21, the resulting transformant cells were precultured overnight in 2.5 mL LB medium and then cells were grown in 200 mL TB medium at 35 °C to an OD600 ~0.6. Protein expression was induced by IPTG addition, and inductions were conducted at 16 °C for 20 h. Cells were harvested and then suspended in the protein extraction buffer (50 mM Tris-HCl pH 8.0, BugBuster protein extraction reagent, and 20U of Benzonase, and the constituent proteins were purified by affinity column chromatography. The purified KAI2 (1 µg) was incubated with dYLG (0.5 µM) in the absence or presence of dMGer analogs for 10 min. We first conducted competitive inhibition assays to determine whether the carba-dMGers could bind to the ligand binding pocket of KAI2. In these assays, a profluorescent probe, desmethyl-Yoshimulactone green (dYLG), was used as a substrate, and the KAI2 binding activity was assessed by the inhibitor concentrations necessary to halve the response (IC50) for fluorophore formation. […] Differential scanning fluorimetry (DSF) assays were also performed to evaluate the effect of the dMGer analogs on KAI2 destabilization. In the DSF assay, ligand–protein interactions are monitored by changes in the melting temperature (Tm); effective agonists, such as GR24^ent^-5DS and dGR24^ent^-5DS, lower the Tm value, that is, thermally destabilize the KAI2 protein ([15], [35])."}, "KAI2 [2]": {"target": "T1, KAI2", "experiment": "competitive dYLG hydrolysis assay with purified KAI2; also DSF and cleavage kinetics (K1/[…] =[…])", "assay_type": "biochemical"}, "KAI2 [3]": {"target": "T1, KAI2", "experiment": "X-ray crystal structure at […] Å (soak); also dYLG competition IC50 and DSF", "assay_type": "biochemical"}, "KAI2 [4]": {"target": "T1, KAI2", "experiment": "competitive dYLG hydrolysis assay with purified KAI2; also DSF (Tm […] to […] °C) and HPLC hydrolysis (K1/[…] =[…])", "assay_type": "biochemical"}},
  "data": [
    {"smiles": "O=C1CC(CCc2ccccc2Br)O1", "note": "(stereo not shown) [2Br-PEO, 4-(2-bromophenethyl)oxetan-2-one]", "values": [
      {"measurement": "IC50", "setting": "KAI2 [1]", "result": 0.22, "unit": "µM"}
    ]},
    {"smiles": "O=C1C=C[C@H](Oc2ccc(-c3ccccc3)cc2[N+](=O)[O-])C1", "note": "[(+)-1′-carba-dMGer]", "values": [
      {"measurement": "IC50", "setting": "KAI2 [2]", "result": 78, "unit": "µM"}
    ]},
    {"smiles": "O=C1C=C[C@H](Cc2ccc(-c3ccccc3)cc2[N+](=O)[O-])O1", "note": "[(+)-6′-carba-dMGer]", "values": [
      {"measurement": "IC50", "setting": "KAI2 [3]", "result": 2.5, "unit": "µM"}
    ]},
    {"smiles": "O=C1C=C[C@H](Oc2ccc(-c3ccccc3)cc2[N+](=O)[O-])O1", "note": "[(+)-dMGer]", "values": [
      {"measurement": "IC50", "setting": "KAI2 [4]", "result": 0.16, "unit": "µM"}
    ]},
    {"smiles": "O=C1C=C[C@@H](Oc2ccc(-c3ccccc3)cc2[N+](=O)[O-])C1", "note": "[(−)-1′-carba-dMGer]", "values": [
      {"measurement": "IC50", "setting": "KAI2 [1]", "result": 152, "unit": "µM"}
    ]},
    {"smiles": "O=C1C=C[C@@H](Cc2ccc(-c3ccccc3)cc2[N+](=O)[O-])O1", "note": "[(−)-6′-carba-dMGer]", "values": [
      {"measurement": "IC50", "setting": "KAI2 [1]", "result": 11, "unit": "µM"}
    ]},
    {"smiles": "O=C1C=C[C@@H](Oc2ccc(-c3ccccc3)cc2[N+](=O)[O-])O1", "note": "[(−)-dMGer]", "values": [
      {"measurement": "IC50", "setting": "KAI2 [1]", "result": 3.6, "unit": "µM"}
    ]}
  ]
}
